Experimental data from patent US20260167622A1, “PAN-KRAS DEGRADING AGENT, AND PREPARATION METHOD THEREFOR AND USE THEREOF” (LEADINGTAC PHARMACEUTICAL (SHAOXING) CO., LTD., priority 2022, published 2026).

What was measured:
Assay type in all cases: cell-based
[1] = system: KRAS WT human gastric cancer cell MKN1; test: 3D cell proliferation inhibition assay, MKN1; settings: MKN-1, 168 h, 3D culture, 7 days, CTG
How it was run: (§1)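 Cells seeded in low-adsorption plates at 5×10^2 cells/well (MKN1 1×10^3) with compounds at final 10000–0.026 nM, 0.2% DMSO, 3D culture 7 days at 37 °C. Viability by CellTiter-Glo luminescence; inhibition normalised to DMSO and medium-only controls, IC50 from nonlinear log-concentration fit.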

[2] = system: KRAS G12V mutant human lung squamous carcinoma cell SW900; test: 3D cell proliferation inhibition assay, SW900; settings: SW900, 168 h, 3D culture, 7 days, CTG
[3] = molecular target: T1, KRAS G12V protein in SW900 cells (Homo sapiens, UniProt P01116, G12V); test: KRAS degradation assay (Western Blot) in SW900 cells; settings: 24 h
T1 construct: endogenous in cells; host or cells: SW900
How it was run: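 Western blot read-out: KRAS band gray value divided by β-actin, compared with DMSO control to give degradation rate. DC50 and Dmax came from log concentration–response fits after 24 h compound exposure (0.03–3000 nM final, 0.25% DMSO) at 37 °C, 5% CO2.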

[4] = system: KRAS G13D mutant human colorectal cancer epithelial cell DLD-1; test: 3D cell proliferation inhibition assay, DLD-1; settings: DLD-1, 168 h, 3D culture, 7 days, CTG
How it was run: as §1

[5] = system: KRAS G12V mutant human colorectal cancer cell SW620; test: 3D cell proliferation inhibition assay, SW620; settings: SW-620, 168 h, 3D culture, 7 days, CTG
How it was run: as §1

[6] = molecular target: T2, KRAS G12D protein in AsPc-1 cells (Homo sapiens, UniProt P01116, G12D); test: KRAS degradation assay (Western Blot) in AsPc-1 cells; settings: for DC50: 24 h; for Dmax: ASPC1, 24 h
T2 construct: endogenous in cells; host or cells: AsPc-1
Text: (§2) Test Example 5: KRAS G12C, KRAS G12D, KRAS G12V, KRAS G13D, and KRAS WT (Expanded) Degradation Assays
(§3) The degradation effect of the compounds on KRAS was investigated on KRAS G12C mutant human non-small cell lung cancer cell NCI-H358, KRAS G12D mutant human metastatic pancreatic cancer cell AsPc-1, KRAS G12D mutant human lung cancer cell A427, KRAS G12V mutant human colorectal cancer cell SW620, KRAS G12V mutant human lung cancer cell SW900, KRAS G13D mutant human colorectal cancer epithelial cell DLD-1, and KRAS WT human gastric cancer cell MKN-1. The specific procedures were as follows: 0.95 mL of cells were seeded into each well of a 24-well cell culture plate to achieve a cell density of 5×10^5 cells/well; and the cell plate was incubated in an incubator at 37° C. with 5% CO2 overnight. Then 50 μL of the compound solution after dilution was added to each of the wells with the corresponding cells, so that the final concentration of the compound was in a range of 0.03-3000 nM. The final concentration of DMSO was 0.25%. After the compounds were added, the cell plate was incubated in an incubator at 37° C. with 5% CO2 for 24 h. The culture medium in the 24-well cell culture plate was then removed, and the plate was washed twice with 1×PBS (KeyGEN). 120 μL of RIPA (strong) lysis buffer (Beyotime) (supplemented with 1 mM phenylmethylsulfonyl fluoride, a protease inhibitor mixture (Beyotime), and a protease phosphatase inhibitor mixture (Beyotime)) was added to lyse adherent SW900 cells at the bottom of the cell culture plate. After the plate was left to stand on ice for 30 min, the protein lysate in each well was transferred to a 1.5 mL centrifuge tube and centrifuged at 15000 g for 20 min at 4° C. The cell lysate supernatants after centrifugation were cryopreserved in a refrigerator at −80° C. for later use.
(§4) After the samples of the cell lysate supernatants that had been prepared were thawed from the refrigerator at −80° C., the total protein concentrations of the cell lysates were determined using a BCA protein quantification kit (Tiangen). The total protein concentrations of the samples were then adjusted to 0.5 μg/μL with PBS and 5×SDS-PAGE protein loading buffer (Beyotime), and the samples were incubated in a water bath at 100° C. for 15 min. The samples were then incubated in an ice bath for 5 min and centrifuged at 14000 g for 1 min at 4° C., and the supernatants were mixed well as loading samples for the Western Blot assay. The samples were loaded into wells of a 10% precast gel (KeyGEN) with a loading volume of 10 μL (total protein: 5 μg), a sufficient Tris-MOPS-SDS running buffer (Adamas) was added, and then electrophoresis was performed at a constant voltage of 120 V for 55 min. After the electrophoresis, the proteins on the gel were transferred to PVDF membranes at a constant current of 250 mA for 55 min. After the membrane transfer, the PVDF membranes were incubated in 1× Quick Block blocking buffer (Beyotime)at room temperature for 30 min. After the blocking, the PVDF membranes were separately incubated at 4° C. overnight with the KRAS antibody (Abcam) diluted in a ratio of 1:1000 and the β-actin antibody (Abcam) diluted in a ratio of 1:2000 in 5% BSA as the diluent, and then washed with 1×TBST buffer (2.4 g of Tris, 8.8 g of NaCl, 1.5 mL of Tween 20, with pH adjusted to 7.4, with the volume brought to 1 L) 3 times for 10 min/time. The membranes were incubated with a secondary antibody (Abcam) diluted in 5% BSA at room temperature for 2 h, and then washed with 1×TBST buffer 3 times for 10 min/time. Finally, the membranes were incubated with Clarity Western ECL Substrate (BIO-RAD) for 5 min for luminescence and color development, and a ChemiScope 6200 Touch chemiluminescence imaging system (Clinx) was used for color development and protein mapping. Gray value analysis of the protein maps was performed using the chemiluminescence analysis software (Clinx). […]

[7] = system: KRAS G12C mutant human non-small cell lung cancer cell NCI-H358; test: 3D cell proliferation inhibition assay, NCI-H358; settings: NCI-H358, 168 h, 3D culture, 7 days, CTG
How it was run: as §1

[8] = system: KRAS G12D mutant human metastatic pancreatic cancer cell AsPc-1; test: 3D cell proliferation inhibition assay, AsPc-1; settings: ASPC1, 168 h, 3D culture, 7 days, CTG
How it was run: as §1

[9] = system: KRAS G12D mutant human lung cancer cell A427; test: 3D cell proliferation inhibition assay, A427; settings: A-427, 168 h, 3D culture, 7 days, CTG
How it was run: as §1

[10] = system: KRAS G12D mutant human gastric cancer cell AGS; test: 3D cell proliferation inhibition assay, AGS; settings: 168 h, 3D culture, 7 days, CTG
How it was run: as §1

[11] = molecular target: T3, KRAS G13D protein in DLD-1 cells (Homo sapiens, UniProt P01116, G13D); test: KRAS degradation assay (Western Blot) in DLD-1 cells; settings: 24 h
T3 construct: endogenous in cells; host or cells: DLD-1
Text: as §2, §3, §4

[12] = molecular target: T4, KRAS G12V protein in SW620 cells (Homo sapiens, UniProt P01116, G12V); test: KRAS degradation assay (Western Blot) in SW620 cells
T4 construct: endogenous in cells; host or cells: SW620
How it was run: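 5×10^5 cells/well; cpd 0.03–3000 nM final, 0.25% DMSO, 24 h, 37 °C/5% CO2. RIPA lysis, 5 µg protein/lane, anti-KRAS WB, β-actin loading ref. DC50/Dmax by nonlinear fit.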

T1 sequence (P01116 1-188 isoform P01116-2 G12V): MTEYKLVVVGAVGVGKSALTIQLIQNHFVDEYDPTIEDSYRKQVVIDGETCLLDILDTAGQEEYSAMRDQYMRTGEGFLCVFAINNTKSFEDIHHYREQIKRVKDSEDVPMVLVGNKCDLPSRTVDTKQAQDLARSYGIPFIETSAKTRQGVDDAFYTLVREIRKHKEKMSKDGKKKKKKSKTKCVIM
T2 sequence (P01116 1-188 isoform P01116-2 G12D): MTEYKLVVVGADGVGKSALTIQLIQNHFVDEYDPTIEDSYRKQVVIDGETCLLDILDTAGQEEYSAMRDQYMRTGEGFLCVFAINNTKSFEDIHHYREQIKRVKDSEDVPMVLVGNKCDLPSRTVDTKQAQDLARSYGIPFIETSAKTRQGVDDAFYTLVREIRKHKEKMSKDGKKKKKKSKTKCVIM
T4 sequence (P01116 1-188 isoform P01116-2 G12V): as the sequence (P01116 1-188 isoform P01116-2 G12V) above
T3 sequence (P01116 1-188 isoform P01116-2 G13D): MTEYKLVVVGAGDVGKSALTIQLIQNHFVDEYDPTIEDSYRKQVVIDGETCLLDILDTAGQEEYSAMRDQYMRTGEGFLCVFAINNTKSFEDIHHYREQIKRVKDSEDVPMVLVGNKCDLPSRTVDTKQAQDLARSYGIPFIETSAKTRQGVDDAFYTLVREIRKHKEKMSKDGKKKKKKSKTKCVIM

IC50 [1] | IC50 [2] | DC50 [3] | Dmax [3] | IC50 [4] | IC50 [5] | DC50 [6] | Dmax [6] | IC50 [7] | IC50 [8] | IC50 [9] | IC50 [10] | DC50 [11] | Dmax [11] | DC50 ([12]; 24 h) | Dmax ([12]; SW-620, 24 h) | Compound
39.2 nM | 527 nM | 62.9 nM | 75.3% | 46.1 nM | 27.4 nM | 822 nM | 57% | 67.4 nM | – | – | – | – | – | – | – | CCc1cccc2cc(O)cc(-c3ccc4c(N5CCC[C@@](C)(O)C5)nc(OCC5(CN6CCN(CC7CCC8(CC7)CCN(C(=O)c7ccc(C)c(N9CCC(=O)NC9=O)c7)CC8)CC6)CC5)nc4c3F)c12 [Example 49, (R)-1-(5-(9-((4-((1-(((7-(8-ethyl-3-hydroxynaphthalen-1-yl)-8-fluoro-4-(3-hydroxy-3-methylpiperidin-1-yl)quinazolin-2-yl)oxy)methyl)cyclopropyl)methyl)piperazin-1-yl)methyl)-3-azaspiro[5.5]undecane-3-carbonyl)-2-methylphenyl)dihydropyrimidine-2,4(1H,3H)-dione]
367 nM | 235 nM | 251 nM | 71% | – | 285 nM | 185 nM | 89% | 420 nM | 368 nM | 564 nM | 588 nM | – | – | – | – | C#Cc1c(F)ccc2cc(O)cc(-c3ncc4c(N5CCCC(C)(N)C5)nc(OCC5(CN6CCN(CC7CCC8(CC7)CCN(C(=O)c7ccc(OC)c(N9CCC(=O)NC9=O)c7)CC8)CC6)CC5)nc4c3F)c12 (centres unmarked) [Example 163, 1-(5-(9-((4-((1-(((4-(3-amino-3-methylpiperidin-1-yl)-7-(8-ethynyl-7-fluoro-3-hydroxynaphthalen-1-yl)-8-fluoropyrido[4,3-d]pyrimidin-2-yl)oxy)methyl)cyclopropyl)methyl)piperazin-1-yl)methyl)-3-azaspiro[5.5]undecane-3-carbonyl)-2-methoxyphenyl)dihydropyrimidine-2,4(1H,3H)-dione]
≤ 50 nM | ≤ 50 nM | ≤ 50 nM | 80 to 100% | ≤ 50 nM | 2.15 nM | – | – | ≤ 50 nM | ≤ 50 nM | 100 to 500 nM | ≤ 50 nM | ≤ 50 nM | 80 to 100% | – | – | CCc1c(F)ccc2cc(O)cc(-c3ncc4c(N5CCC[C@@](C)(O)C5)nc(OCC5(CN6CCN(CC7CCC8(CC7)CCN(C(=O)c7ccc(OC)c(N9CCC(=O)NC9=O)c7)CC8)CC6)CC5)nc4c3F)c12 [Example 42, (R)-1-(5-(9-((4-((1-(((7-(8-ethyl-7-fluoro-3-hydroxynaphthalen-1-yl)-8-fluoro-4-(3-hydroxy-3-methylpiperidin-1-yl)pyrido[4,3-d]pyrimidin-2-yl)oxy)methyl)cyclopropyl)methyl)piperazin-1-yl)methyl)-3-azaspiro[5.5]undecane-3-carbonyl)-2-methoxyphenyl)dihydropyrimidine-2,4(1H,3H)-dione]
52.5 nM | 15.6 nM | 5.9 nM | 100% | 18.9 nM | 4.58 nM | 13.4 nM | 100% | 7.23 nM | 18.6 nM | 108 nM | 27.8 nM | – | – | 7.6 nM | 100% | C#Cc1c(F)ccc2cc(O)cc(-c3ncc4c(N5CCOCC(C)(O)C5)nc(OCC5(CN6CCN(CC7CCC8(CC7)CCN(C(=O)c7ccc(OC)c(N9CCC(=O)NC9=O)c7)CC8)CC6)CC5)nc4c3F)c12 (centres unmarked) [Example 165, 1-(5-(9-((4-((1-(((7-(8-ethynyl-7-fluoro-3-hydroxynaphthalen-1-yl)-8-fluoro-4-(6-hydroxy-6-methyl-1,4-oxazepan-4-yl)pyrido[4,3-d]pyrimidin-2-yl)oxy)methyl)cyclopropyl)methyl)piperazin-1-yl)methyl)-3-azaspiro[5.5]undecane-3-carbonyl)-2-methoxyphenyl)dihydropyrimidine-2,4(1H,3H)-dione]
– | – | ≤ 50 nM | 80 to 100% | 86.6 nM | 35.6 nM | ≤ 50 nM | 50 to 80% | 11.6 nM | – | – | – | – | – | – | – | C#Cc1cccc2cc(O)cc(-c3ncc4c(N5CCCOCC5)nc(OCC5(CN6CCN(CC7CCC8(CC7)CCN(C(=O)c7ccc(OC)c(N9CCC(=O)NC9=O)c7)CC8)CC6)CC5)nc4c3F)c12 [Example 39, 1-(5-(9-((4-((1-(((7-(8-ethynyl-3-hydroxynaphthalen-1-yl)-8-fluoro-4-(1,4-oxazepan-4-yl)pyrido[4,3-d]pyrimidin-2-yl)oxy)methyl)cyclopropyl)methyl)piperazin-1-yl)methyl)-3-azaspiro[5.5]undecane-3-carbonyl)-2-methoxyphenyl)dihydropyrimidine-2,4(1H,3H)-dione]
